Data published in patent US9363996B2, “Compositions and method for blocking ethylene response in field crops using 3-(cy-clopropyl-l-enyl)-propanoic salt” (Yissum Research Development Company of the Hebrew …, priority 2009, dated 2016).

Legend:
wheat plants [1] = assay: Ethephon-induced flag leaf epinasty of wheat plants after spike heading; assay type: in vivo, wheat (Triticum turgidum var. 'Gdera'); details: Ethephon 750 μL L^−1 spray alone
Procedure: (1) Abscission—This is a very sensitive model system for studying the effects of plant hormones. Ethylene induces the process of abscission, while auxin delays it. In the laboratory the experimental system is based on plant organ explants, which include the abscission zone. Abscission is induced by exposure to ethylene and at the termination of the experiment the number of abscised organs, usually either leaf blades or petioles are counted and the fraction of abscission is calculated. In the case of fruit, the decrease in fruit retention force is analyzed. In cotton, when WS-CPD (the ethylene-action antagonist herein disclosed) is tested, the whole plants or explants are pretreated by spraying with the antagonist, dissolved in a phosphate buffer solution (10-20 mM, pH 7.0) including 0.1% commercially available Kinetic™ as surfactant, and left to incubate for a predetermined time, usually between 6 and 24 h. […] At the end of the experiment the percentage of abscission is determined. […] At the end of the experiment a dimethylsulfoxide (DMSO) extract of the plant tissue is prepared, and the chlorophyll content of the extract is determined by spectrophotometric analysis. […] The extent of ethylene-induced epinasty of leaves is determined by measuring the change of the angle between the petiole and the stem shoot or blade. […]

wheat plants [2] = assay: Wheat grain weight at the milky stages after Ethephon treatment; assay type: in vivo, wheat (Triticum turgidum var. 'Gdera'); details: Ethephon 750 μL L^−1, sandy soil
Procedure: (§1) (1) Abscission—This is a very sensitive model system for studying the effects of plant hormones. Ethylene induces the process of abscission, while auxin delays it. In the laboratory the experimental system is based on plant organ explants, which include the abscission zone. Abscission is induced by exposure to ethylene and at the termination of the experiment the number of abscised organs, usually either leaf blades or petioles are counted and the fraction of abscission is calculated. In the case of fruit, the decrease in fruit retention force is analyzed. In cotton, when WS-CPD (the ethylene-action antagonist herein disclosed) is tested, the whole plants or explants are pretreated by spraying with the antagonist, dissolved in a phosphate buffer solution (10-20 mM, pH 7.0) including 0.1% commercially available Kinetic™ as surfactant, and left to incubate for a predetermined time, usually between 6 and 24 h. The plants or explants are then further exposed for 24 h to ethylene gas (5 to 20 μL L^−1). The plants or explants are then ventilated and incubated for the required time under controlled conditions. At the end of the experiment the percentage of abscission is determined. (2) Chlorophyll degradation—This is a standard model for studying senescence. Plant material (whole plants, excised leaves or leaf discs) are pretreated. In cotton, tobacco and wheat, when WS-CPD is tested, the whole plants or explants are pretreated by spraying with the antagonist, dissolved in phosphate buffer solution (10-20 mM, pH 7.0) including 0.1% commercially available Kinetic™ surfactant, and left to incubate for a predetermined time, usually between 6 and 241. The plants or explants are then further exposed for 24 h to ethylene gas (1 to 100 μL L^−1), or sprayed with Ethephon™ (wheat; 250 to 750 μL L^−1). The plants or explants are then ventilated and incubated for the required time under controlled conditions. At the end of the experiment a dimethylsulfoxide (DMSO) extract of the plant tissue is prepared, and the chlorophyll content of the extract is determined by spectrophotometric analysis. The chlorophyll content is reported either on a fresh, dry weight basis, or on a surface area basis. (3) Epinasty—This is also one of the classical methods for studying ethylene effects in plants. The extent of ethylene-induced epinasty of leaves is determined by measuring the change of the angle between the petiole and the stem shoot or blade. After exposure of the intact plant to ethylene, the upright grown leaves bend downward. The increase in the angle values (degrees) between petiole and the stem is used as a measure of the effect of the ethylene. When WS-CPD is tested on cotton and wheat plants, the whole plants are pretreated by spraying with the antagonist dissolved in phosphate buffer solution (10-20 mM, pH 7.6) including 0.1% Kinetic™ as surfactant, and left to incubate for a predetermined time, usually between 6 and 24 h. The plants are then further exposed for 24 h to ethylene gas (cotton, 5 to 10 μL L^−1), or sprayed with Ethephon™ (wheat, 250 to 750 μL L^−1). The plants are then ventilated and incubated for the required time under controlled conditions. The epinastic effect is expressed by measuring the degree values of the downward curvature between the blade and petiole (cotton, FIGS. 1-3) or between the blade and the stem (wheat, FIGS. 31 and 32). (4) Wheat Grain yield—This is a common test of the effects of exposure of monocot plants either to environmental stresses such as drought that induce senescence by increasing endogenous ethylene production. Excessive internal or external ethylene will accelerate senescence which will lead to reduced grain yield. In this project the intact plants were grown in the greenhouse up to the spike hading at milky stage I and II. The plants were then sprayed with the dissolved WS-CPD in phosphate buffer solution (10 mM, pH 7.6) including 0.1% Kinetic™ as surfactant. Young Cotton Seedlings […]

wheat plants [3] = assay: Ethephon-induced chlorophyll degradation in wheat leaves, glumes and chaffs; assay type: in vivo, wheat (Triticum turgidum var. 'Gdera'); details: for reduction of chlorophyll content: chaffes; for reduction of chlorophyll content / reduction in chlorophyll content: milky stage I; for decrease of chlorophyll content: Ethephon 250 and 750 μL L^−1 at milky stage I, after 5-6 days; for reduction in chlorophyll content: glumes
Procedure: as §1

tobacco seedlings = assay: Ethylene-induced chlorophyll degradation in tobacco seedling leaves; assay type: in vivo, tobacco (Nicotiana tabacum var. 'Samsun'); details: ethylene alone
Procedure: as §1, with “ethylene.” for “ethylene. When WS-CPD is tested on cotton and wheat plants, the whole plants are pretreated by spraying with the antagonist dissolved in phosphate buffer solution (10-20 mM, pH 7.6) including 0.1% Kinetic™ as surfactant, and left to incubate for a predetermined time, usually between 6 and 24 h. The plants are then further exposed for 24 h to ethylene gas (cotton, 5 to 10 μL L^−1), or sprayed with Ethephon™ (wheat, 250 to 750 μL L^−1). The plants are then ventilated and incubated for the required time under controlled conditions. The epinastic effect is expressed by measuring the degree values of the downward curvature between the blade and petiole (cotton, FIGS. 1-3) or between the blade and the stem (wheat, FIGS. 31 and 32). (4) Wheat Grain yield—This is a common test of the effects of exposure of monocot plants either to environmental stresses such as drought that induce senescence by increasing endogenous ethylene production. Excessive internal or external ethylene will accelerate senescence which will lead to reduced grain yield. In this project the intact plants were grown in the greenhouse up to the spike hading at milky stage I and II. The plants were then sprayed with the dissolved WS-CPD in phosphate buffer solution (10 mM, pH 7.6) including 0.1% Kinetic™ as surfactant. Young Cotton Seedlings”

[4] = system: young cotton leaf explants; assay: Ethylene-induced petiole abscission of young cotton leaf explants; assay type: in vivo, cotton (Gossyium hirsutum barbadense L.); details: ethylene alone
Procedure: (1) Abscission—This is a very sensitive model system for studying the effects of plant hormones. Ethylene induces the process of abscission, while auxin delays it. In the laboratory the experimental system is based on plant organ explants, which include the abscission zone. Abscission is induced by exposure to ethylene and at the termination of the experiment the number of abscised organs, usually either leaf blades or petioles are counted and the fraction of abscission is calculated. In the case of fruit, the decrease in fruit retention force is analyzed. In cotton, when WS-CPD (the ethylene-action antagonist herein disclosed) is tested, the whole plants or explants are pretreated by spraying with the antagonist, dissolved in a phosphate buffer solution (10-20 mM, pH 7.0) including 0.1% commercially available Kinetic™ as surfactant, and left to incubate for a predetermined time, usually between 6 and 24 h. The plants or explants are then further exposed for 24 h to ethylene gas (5 to 20 μL L^−1). The plants or explants are then ventilated and incubated for the required time under controlled conditions. At the end of the experiment the percentage of abscission is determined. (2) Chlorophyll degradation—This is a standard model for studying senescence. Plant material (whole plants, excised leaves or leaf discs) are pretreated. In cotton, tobacco and wheat, when WS-CPD is tested, the whole plants or explants are pretreated by spraying with the antagonist, dissolved in phosphate buffer solution (10-20 mM, pH 7.0) including 0.1% commercially available Kinetic™ surfactant, and left to incubate for a predetermined time, usually between 6 and 241. […] At the end of the experiment a dimethylsulfoxide (DMSO) extract of the plant tissue is prepared, and the chlorophyll content of the extract is determined by spectrophotometric analysis. […] The extent of ethylene-induced epinasty of leaves is determined by measuring the change of the angle between the petiole and the stem shoot or blade. […]

wheat seedlings = assay: Third leaf growth of young wheat seedlings exposed to ethylene; assay type: in vivo, wheat (Triticum turgidum var. 'Gdera'); details: for inhibition of growth of the third leaf: additional experiment

| SMILES | flag leaf epinasty (wheat plants [1]) | reduction of grain weight (wheat plants [2]; stage I) | reduction of grain weight (wheat plants [2]; stage II) | reduction of chlorophyll content (wheat plants [3]; Ethephon 250 μL L^−1) | reduction of chlorophyll content (wheat plants [3]; Ethephon 750 μL L^−1) | decrease of chlorophyll content (wheat plants [3]; flag leaf) | reduction of the content of chlorophyll (wheat plants [3]; flag leaf, Ethephon 750 μL L^−1, milky stage II) | chlorophyll lower compared with the untreated control spikes (wheat plants [3]; glumes and chaffs, Ethephon 750 μL L^−1, milky stage II) | reduction in chlorophyll content (wheat plants [3]; Ethephon 250 μL L^−1) | reduction in chlorophyll content (wheat plants [3]; Ethephon 750 μL L^−1) | decrease of chlorophyll content (wheat plants [3]; leaf II) | reduction of the content of chlorophyll (wheat plants [3]; leaf II, Ethephon 750 μL L^−1, milky stage II) | reduction of chlorophyll content (tobacco seedlings; mature (lower) leaves) | decrease in chlorophyll content as compared with air-treated leaves (tobacco seedlings; young (upper) leaves) | rate of petiole abscission [4] | inhibition of growth of the third leaf (wheat seedlings; ethylene 1.6 μL L^−1) | inhibition of growth of the third leaf (wheat seedlings; ethylene 20 μL L^−1) | length of the third leaf longer than air-control leaf (wheat seedlings; ethylene 1 μL L^−1, continuous exposure) | inhibition of growth of the third leaf compared to air control (wheat seedlings; ethylene 10 μL L^−1) | inhibition of growth of the third leaf compared to air control (wheat seedlings; ethylene 100 μL L^−1) |
| --- | --- | --- | --- | --- | --- | --- | --- | --- | --- | --- | --- | --- | --- | --- | --- | --- | --- | --- | --- | --- |
| O=P(O)(O)CCCl [Ethephon, reference compound] | strong leaf epinasty | 4% | 18% | 33% | 28% | 16-21% | 33% | 12% | 10% | 40% | 21-22% | 47% |  |  |  |  |  |  |  |  |
| C=C [ethylene] |  |  |  |  |  |  |  |  |  |  |  |  | 72% | 17% | accelerated | 20% | 35% | 50% | 50% | 30% |
